Data as given in paper PMC9855104, “Use of High-Dose Nebulized Colistimethate in Patients with Colistin-Only Susceptible Acinetobacter baumannii VAP: Clinical, Pharmacokinetic and Microbiome Features” (Antibiotics, 2023).
“Also recorded” adds a separate entry of the source. Peptide text beside a SMILES is read from it.

How the values were obtained:
[1] = Safety and adverse events of colistin nebulization (DHHS-CTCAE version 3.0); type: in vivo, ICU patients; conditions: 5 MIU q8, vibrating mesh nebulizer; 134 patients, 1376 days of nebulization
Protocol: Patients received 5 MIU of CMS (Colimycine®, Sanofi, Paris, France) dissolved in 6 mL of saline solution by nebulization over 30 min using a vibrating-mesh nebulizer (Aeroneb Pro®, Aerogen, Galway, […]) every 8 h. Solutions for nebulization were freshly prepared. During aerosol delivery, all patients were sedated and received assisted/controlled mechanical ventilation with a tidal volume of 6–8 mL/kg of predicted body weight and respiratory rates of 12–15 cycles/min. The humidifier was removed and the nebulizer was inserted near the Y-piece connector on the inspiratory arm
VAP, septic shock, and acute kidney injury requiring continuous […] replacement therapy were defined according to current recommendations. VAP was diagnosed in the presence of radiological and clinical signs consisting of a new and persistent infiltrate on the chest radiograph associated with two of the three following criteria: purulent tracheal aspirates, hyperthermia > 38 °C or hypothermia < 36 °C, and peripheral leukocytosis > 10,000/μL or < 1500/μL. […] Safety and adverse events (AE) were determined through the biochemical abnormalities documented in medical records according to the Department of Health and Human Services—Common Terminology Criteria for Adverse Events (DHHS-CTCAE version 3.0) classification. […]

[2] = ELF pharmacokinetics of colistin and CMS after nebulization (micro-BAL, LC-MS/MS); type: in vivo, ICU patients
Protocol: According to patients’ respiratory status, two micro-bronchoalveolar lavages (BALs) (40 mL of sterile 0.9% saline solution were blindly instilled through a telescopic catheter and immediately aspirated in a trap) were performed at steady state, before nebulization and 1 h after the end. ELF colistin concentration (COLELF) was calculated from BAL concentration (COLBAL) using urea as a dilution marker: COLELF = COLBAL X urea dilution index (plasma urea concentration/BAL urea concentration).
Purification and separation of colistin and CMS were performed using and modifying the Gobin assay. BAL samples were extracted by solid-phase extraction followed by evaporation to dryness and reconstitution in mobile phase. The chromatographic separation was carried out on an AQUITY UPLC C18 column. Polymyxin B was used as internal standard. The detection was performed on a triple quadrupole tandem mass spectrometer using multi-reaction monitoring via an electrospray ionization source with positive ionization mode.

[3] = test system: Acinetobacter baumannii isolates; assay: Minimum inhibitory concentration of AB isolates; type: cell-based; conditions: median [interquartile range]; values available for 79 patients; Micronaut AST system-based BMD, VITEK 2 AST-N397 card; EUCAST version 11.0
Protocol: AB isolates were identified by using matrix-assisted laser desorption ionization-time of flight mass spectrometry (MALDI-TOF MS). Minimum inhibitory concentrations (MICs) were determined by a Micronaut AST system-based BMD, VITEK 2 AST-N397 card, according to the manufacturer’s instructions. EUCAST (version 11.0, 2021) clinical breakpoints were used to interpret MICs.

[4] = cited from earlier work
Protocol: Despite the recent introduction of new antibiotics against difficult-to-treat bacteria, colistin is still used in the critically ill setting, especially as part of combination therapies. This drug is a antibiotic; it is administered as intravenous colistimethate (CMS) and then undergoes extensive plasmatic hydrolysis. CMS is mainly metabolized by the renal route apart from the amount that is modified to colistin. This agent is cleared by extra-renal, yet unknown, mechanisms, but its plasmatic levels may increase in the presence of renal failure due to the reduced clearance a ... || From a pharmacokinetic standpoint, CMS nebulization may overcome its negligible ELF penetration after intravenous administration. Although many factors may interfere with the reliability of the detected lung antibiotics concentration, including the diagnostic technique, the binding to inflammatory molecules, and the heterogeneity of lung aeration, it is widely accepted that CMS nebulization is the only strategy to obtain alveolar levels above MIC for mostly Gram-negative MDR pathogens. When treating VAP due to COS bacteria, a correct drug dose and nebulizer strategy should be reco ...

[5] = in vivo; cited from earlier work
Excerpt: In addition, the observed safety profile may be further improved by correct CMS ...

[6] = test system: multidrug-resistant / COS Gram-negative VAP; conditions: cited from earlier work
Excerpt: There is pre-clinical evidence to support vibrating-mesh nebulizers, over jet and ultrasonic ones.

[7] = following 24 h of dosing, vibrating meshes, ten patients with MDR VAP
[8] = 326 patients with COS Gram-negative VAP, aerosolized 2 MIU q 8 h, jet nebulizer

Molecule	Drug-related / pulmonary adverse events of nebulization (in words) [1]	ELF concentration one hour after nebulization ([2]; median [IQR], 7 patients, after 72 h of nebulized therapy (CMS 5 MIU q8), micro-BAL, urea dilution index, UPLC C18, tandem MS)	ELF colistin concentrations relative to CRAB minimal-inhibitory concentration (in words) ([2]; nebulized CMS 5 MIU q8)	MIC [3]	Samples with colistin ELF concentrations above 10 mcg/mL ([4]; 20 patients, 1 MIU nebulization, jet and ultrasonic machines, samples at 1 h after the aerosol) [%]	Trough-predicted colistin ELF level, 3 MII nebulized CMS [4, 7] [µg/mL]	Trough-predicted colistin ELF level, 5 MIU nebulized CMS [4, 7] [µg/mL]	ELF penetration after intravenous administration (in words) [4]	Bronchospasm [5] [%]	Episodes of bronchospasm (in words) [5]	Neuromuscular toxicity [5] [%]	Reduction in the rate of renal failure [5] [%]	Clinical cure rate vs controls treated with intravenous antibiotics (in words) ([6]; 5 MIU q8 h, vibrating plate nebulizer, 44 patients with multidrug-resistant AB and Pseudomonas aeruginosa vs 122 controls)	DAY-14 clinical failure rate (in words) [6, 8]	Mortality (in words) [6, 8]
CC[C@H](C)CCCCC(=O)N[C@@H](CCN)C(=O)N[C@H](C(=O)N[C@@H](CCN)C(=O)N[C@H]1CCNC(=O)[C@H]([C@@H](C)O)NC(=O)[C@H](CCN)NC(=O)[C@H](CCN)NC(=O)[C@H](CC(C)C)NC(=O)[C@@H](CC(C)C)NC(=O)[C@H](CCN)NC1=O)[C@@H](C)O [colistin] (HELM PEPTIDE1{[CC[C@H](C)CCCCC(=O)[*:2]].[Dab].T.[Dab].[Dab].[Dab].[dL].L.[Dab].[Dab].T}$PEPTIDE1,PEPTIDE1,5:R3-11:R2$$$V2.0)	did not observe any; also recorded: without observing any	121.7 [40.1–143.1] mcg/mL	far above	1 [0.5–1] mcg/mL	25	120.4	200.7	minimal							
colistimethate [CMS]	did not observe any							negligible	2	did not report any	3	33	similar	significantly lower	without affecting
